{"source": "ChEMBL document CHEMBL4425144", "about": "“Discovery and Structural Optimization of N5-Substituted 6,7-Dioxo-6,7-dihydropteridines as Potent and Selective Epidermal Growth Factor Receptor (EGFR) Inhibitors against L858R/T790M Resistance Mutation” (J Med Chem, 2016)", "key": {"[1]": {"assay": "Cmax in ICR mouse at 1 mg/kg, iv by LC-MS/MS method", "assay_type": "ADME, organism-based", "set-up": "dose 1 mg/kg, route intravenous", "details": "in vivo"}, "[2]": {"assay": "Toxicity in human NCI-H1975 cells xenografted BALB/c mouse assessed as body weight loss at 50 mg/kg, po qd for 14 consecutive days", "assay_type": "organism-based", "details": "in vivo"}, "[3]": {"biological_target": "T1, Mitogen-activated protein kinase kinase kinase 6 (Homo sapiens) (UniProt O95382)", "T1 sequence (whole entry)": "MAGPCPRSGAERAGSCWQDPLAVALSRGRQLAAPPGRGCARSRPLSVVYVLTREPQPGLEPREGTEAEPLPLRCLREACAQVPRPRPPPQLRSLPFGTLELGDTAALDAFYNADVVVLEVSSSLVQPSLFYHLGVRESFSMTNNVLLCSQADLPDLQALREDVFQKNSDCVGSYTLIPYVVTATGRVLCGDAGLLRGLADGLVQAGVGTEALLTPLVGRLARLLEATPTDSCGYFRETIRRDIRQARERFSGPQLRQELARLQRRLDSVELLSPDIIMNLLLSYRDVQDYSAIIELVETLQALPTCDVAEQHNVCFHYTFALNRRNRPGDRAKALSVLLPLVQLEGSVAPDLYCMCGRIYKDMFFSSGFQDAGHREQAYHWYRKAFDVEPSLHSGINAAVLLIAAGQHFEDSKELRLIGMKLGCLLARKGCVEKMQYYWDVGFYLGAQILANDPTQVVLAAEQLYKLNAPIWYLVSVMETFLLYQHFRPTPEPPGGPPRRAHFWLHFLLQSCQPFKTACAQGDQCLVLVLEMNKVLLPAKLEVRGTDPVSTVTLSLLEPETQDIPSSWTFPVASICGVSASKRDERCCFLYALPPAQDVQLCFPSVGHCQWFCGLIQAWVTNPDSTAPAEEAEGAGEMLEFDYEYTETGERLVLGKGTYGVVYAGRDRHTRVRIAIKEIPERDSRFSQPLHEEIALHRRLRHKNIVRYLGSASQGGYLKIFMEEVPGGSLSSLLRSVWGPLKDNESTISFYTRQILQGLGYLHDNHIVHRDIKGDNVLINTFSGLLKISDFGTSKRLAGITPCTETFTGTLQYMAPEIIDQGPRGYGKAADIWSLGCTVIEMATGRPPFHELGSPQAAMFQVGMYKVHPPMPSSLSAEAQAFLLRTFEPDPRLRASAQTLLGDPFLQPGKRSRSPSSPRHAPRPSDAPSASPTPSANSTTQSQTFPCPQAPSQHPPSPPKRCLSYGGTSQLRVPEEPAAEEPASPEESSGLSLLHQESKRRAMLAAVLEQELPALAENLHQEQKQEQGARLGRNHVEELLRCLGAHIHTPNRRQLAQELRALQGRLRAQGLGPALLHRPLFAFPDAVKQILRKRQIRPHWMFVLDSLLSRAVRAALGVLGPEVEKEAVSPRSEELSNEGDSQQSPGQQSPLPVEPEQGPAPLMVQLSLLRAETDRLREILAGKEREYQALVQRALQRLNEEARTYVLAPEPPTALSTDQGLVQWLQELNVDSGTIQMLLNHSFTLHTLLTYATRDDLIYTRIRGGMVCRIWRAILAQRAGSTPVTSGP", "assay": "Inhibition of human ASK2 expressed in mammalian system assessed as remaining enzyme activity at 1000 nM relative to untreated control"}, "[4]": {"biological_target": "Epidermal growth factor receptor (Homo sapiens, UniProt P00533)", "sequence (P00533 whole entry, the tested form may be a part)": "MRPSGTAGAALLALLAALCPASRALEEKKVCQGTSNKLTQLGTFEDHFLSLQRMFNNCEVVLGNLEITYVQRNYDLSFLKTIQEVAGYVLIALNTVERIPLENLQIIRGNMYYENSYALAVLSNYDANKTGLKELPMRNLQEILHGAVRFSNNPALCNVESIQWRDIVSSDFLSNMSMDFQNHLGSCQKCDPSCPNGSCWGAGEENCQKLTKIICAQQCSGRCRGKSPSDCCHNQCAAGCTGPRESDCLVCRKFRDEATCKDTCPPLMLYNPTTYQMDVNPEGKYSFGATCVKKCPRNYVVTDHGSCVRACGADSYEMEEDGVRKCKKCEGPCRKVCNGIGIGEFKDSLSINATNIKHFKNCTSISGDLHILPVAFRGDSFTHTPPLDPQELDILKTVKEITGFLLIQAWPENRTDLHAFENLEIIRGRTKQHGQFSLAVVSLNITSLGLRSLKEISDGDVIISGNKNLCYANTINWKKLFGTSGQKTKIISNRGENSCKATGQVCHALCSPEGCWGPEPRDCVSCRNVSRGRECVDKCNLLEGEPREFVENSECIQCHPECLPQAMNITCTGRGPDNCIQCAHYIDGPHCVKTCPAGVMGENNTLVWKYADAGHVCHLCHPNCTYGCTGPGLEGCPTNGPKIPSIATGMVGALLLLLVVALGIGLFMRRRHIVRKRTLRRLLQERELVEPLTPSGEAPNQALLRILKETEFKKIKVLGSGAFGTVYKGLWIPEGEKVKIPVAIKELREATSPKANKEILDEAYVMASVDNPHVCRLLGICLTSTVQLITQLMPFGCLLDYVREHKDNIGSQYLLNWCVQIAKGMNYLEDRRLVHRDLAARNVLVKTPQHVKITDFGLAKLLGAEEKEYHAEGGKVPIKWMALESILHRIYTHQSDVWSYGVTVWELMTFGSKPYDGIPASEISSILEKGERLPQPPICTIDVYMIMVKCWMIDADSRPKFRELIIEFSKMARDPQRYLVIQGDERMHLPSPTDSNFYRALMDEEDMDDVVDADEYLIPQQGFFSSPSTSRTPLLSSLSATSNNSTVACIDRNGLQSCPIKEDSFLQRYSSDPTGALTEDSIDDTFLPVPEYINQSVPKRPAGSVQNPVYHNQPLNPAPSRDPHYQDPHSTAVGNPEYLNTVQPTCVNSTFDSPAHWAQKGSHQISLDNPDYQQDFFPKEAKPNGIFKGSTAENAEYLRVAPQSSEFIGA", "assay": "Inhibition of EGF-induced EGFR kinase domain phosphorylation in human NCI-H1975 cells at 1000 nM pre-incubated for 2 hrs followed by stimulation with EGF for 15 mins by Western blot method", "assay_type": "cell-based"}, "[5]": {"assay": "AUC (0 to infinity) in ICR mouse at 1 mg/kg, iv by LC-MS/MS method", "assay_type": "ADME, organism-based", "set-up": "dose 1 mg/kg, route intravenous, time infinity", "details": "in vivo"}, "[6]": {"biological_target": "Epidermal growth factor receptor (Homo sapiens, UniProt P00533, L858R/T790M)", "sequence (P00533 25-1210 T790M/L858R limits assumed)": "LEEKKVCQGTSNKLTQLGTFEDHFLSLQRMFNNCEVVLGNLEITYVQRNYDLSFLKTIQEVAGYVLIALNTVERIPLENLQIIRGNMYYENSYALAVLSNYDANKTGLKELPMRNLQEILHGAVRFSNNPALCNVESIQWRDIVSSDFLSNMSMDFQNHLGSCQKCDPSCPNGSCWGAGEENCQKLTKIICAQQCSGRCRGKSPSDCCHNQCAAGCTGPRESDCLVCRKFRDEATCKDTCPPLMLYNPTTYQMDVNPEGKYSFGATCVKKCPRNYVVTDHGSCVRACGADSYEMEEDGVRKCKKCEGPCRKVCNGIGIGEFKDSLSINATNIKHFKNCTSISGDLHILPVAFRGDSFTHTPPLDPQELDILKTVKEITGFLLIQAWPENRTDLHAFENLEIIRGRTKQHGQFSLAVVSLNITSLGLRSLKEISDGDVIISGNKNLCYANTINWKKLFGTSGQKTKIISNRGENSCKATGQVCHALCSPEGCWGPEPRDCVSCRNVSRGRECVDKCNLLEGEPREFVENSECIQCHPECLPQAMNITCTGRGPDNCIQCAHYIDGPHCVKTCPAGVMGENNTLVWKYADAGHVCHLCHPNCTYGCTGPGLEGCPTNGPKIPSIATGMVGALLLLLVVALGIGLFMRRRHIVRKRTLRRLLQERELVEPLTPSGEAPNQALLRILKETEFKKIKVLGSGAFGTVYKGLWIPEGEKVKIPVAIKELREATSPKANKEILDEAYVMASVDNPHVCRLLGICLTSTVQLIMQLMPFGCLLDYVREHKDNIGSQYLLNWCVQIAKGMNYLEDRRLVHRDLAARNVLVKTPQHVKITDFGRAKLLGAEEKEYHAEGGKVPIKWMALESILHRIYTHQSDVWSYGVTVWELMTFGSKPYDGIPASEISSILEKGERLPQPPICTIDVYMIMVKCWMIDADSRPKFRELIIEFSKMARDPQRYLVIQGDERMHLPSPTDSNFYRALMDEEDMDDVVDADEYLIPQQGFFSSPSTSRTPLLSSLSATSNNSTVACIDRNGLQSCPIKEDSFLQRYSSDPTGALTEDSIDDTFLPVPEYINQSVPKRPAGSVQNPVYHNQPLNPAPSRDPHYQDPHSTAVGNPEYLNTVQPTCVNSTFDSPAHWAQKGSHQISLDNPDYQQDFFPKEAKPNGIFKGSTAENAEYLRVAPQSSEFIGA", "assay": "Inhibition of EGFR kinase domain L858R/T790M mutant (unknown origin) expressed using baculovirus expression system incubated for 1 hr using Poly(Glu,Tyr) 4:1 by ELISA method"}, "[7]": {"assay": "Half life in ICR mouse at 1 mg/kg, iv by LC-MS/MS method", "assay_type": "ADME, organism-based", "details": "in vivo"}, "[8]": {"system": "NCI-H1975", "assay": "Antiproliferative activity against human NCI-H1975 cells incubated for 72 hrs by SRB assay", "assay_type": "functional, cell-based", "details": "NCI-H1975, 72 h"}, "[9]": {"assay": "AUC (0 to t) in ICR mouse at 1 mg/kg, iv by LC-MS/MS method", "assay_type": "ADME, organism-based", "details": "in vivo"}, "[10]": {"assay": "Tmax in ICR mouse at 1 mg/kg, iv by LC-MS/MS method", "assay_type": "ADME, organism-based", "details": "in vivo"}, "[11]": {"assay": "Half life in mouse liver microsomes at 1 uM in presence of NADPH by LC-MS/MS method", "assay_type": "ADME, Microsome"}, "[12]": {"assay": "Cmax in ICR mouse at 10 mg/kg, po by LC-MS/MS method", "assay_type": "ADME, organism-based", "set-up": "dose 10 mg/kg, route oral", "details": "in vivo"}, "[13]": {"assay": "Thermodynamic solubility of the compound in 0.1M PBS buffer at pH 7.4 by UV-visible spectrophotometry", "assay_type": "physicochemical", "details": "read-out: Therm_solubility"}, "[14]": {"assay": "Apparent volume of distribution in ICR mouse at 1 mg/kg, iv by LC-MS/MS method", "assay_type": "ADME, organism-based", "details": "in vivo, read-out: Vz"}, "[15]": {"assay": "Tmax in ICR mouse at 10 mg/kg, po by LC-MS/MS method", "assay_type": "ADME, organism-based", "details": "in vivo"}, "[16]": {"assay": "Oral bioavailability in ICR mouse at 10 mg/kg by LC-MS/MS method", "assay_type": "ADME, organism-based", "details": "in vivo"}}, "note": "pIC50: −log10 of the molar value. The source made the active and inactive calls. No cut-off for these calls is given here."}
{"compound": "C=CC(=O)Nc1cccc(-n2c(=O)c(=O)n(C(C)C)c3cnc(Nc4ccc(N5CCN(C)CC5)cc4OC)nc32)c1", "values": [{"measurement": "Cmax", "setting": "[1]", "result": 258, "unit": "ng/mL"}, {"measurement": "Activity", "setting": "[2]", "result": "Non-Toxic"}, {"measurement": "Activity", "setting": "[3]", "result": "< 1", "unit": "%"}, {"measurement": "inhibition", "setting": "[4]", "result": "inactive"}, {"measurement": "AUC(0-inf)", "setting": "[5]", "result": 143, "unit": "ng·h/mL"}, {"measurement": "pIC50", "setting": "[6]", "result": 9.52}, {"measurement": "half-life", "setting": "[7]", "result": 48, "unit": "min"}, {"measurement": "pIC50", "setting": "[8]", "result": 7.74}, {"measurement": "AUC(0-t)", "setting": "[9]", "result": 140, "unit": "ng·h/mL"}, {"measurement": "Tmax", "setting": "[10]", "result": 54, "unit": "min"}, {"measurement": "half-life at 1 µM", "setting": "[11]", "result": 51, "unit": "min"}, {"measurement": "Cmax", "setting": "[12]", "result": 136, "unit": "ng/mL"}, {"measurement": "solubility thermodynamic", "setting": "[13]", "result": 41, "unit": "µg/mL"}, {"measurement": "Vd", "setting": "[14]", "result": 8.01, "unit": "L/kg"}, {"measurement": "Tmax", "setting": "[15]", "result": 120, "unit": "min"}, {"measurement": "bioavailability", "setting": "[16]", "result": 48, "unit": "%"}]}
